Laboratory results reported in the CheMixHub viscosity set.

Test: xn = mol fraction of the nth substance listed
Details: 101 kPa

CCOC(=O)CCCBr + CCCCCC
303.15 K
Details | viscosity [mPa·s]
x1 = 0.2012 | 0.4062
x1 = 0.3949 | 0.5871
x1 = 0.4988 | 0.7248
x1 = 0.6008 | 0.8853
x1 = 0.7973 | 1.274

COCCOCCOCCO + CCCO
viscosity [mPa·s]
Details | 298.15 K | 308.15 K | 318.15 K
x1 = 0.0134 | 1.952 | 1.526 | 1.246
x1 = 0.0366 | 1.983 | 1.555 | 1.273
x1 = 0.0639 | 2.034 | 1.604 | 1.32
x1 = 0.1165 | 2.159 | 1.692 | 1.4
x1 = 0.1568 | 2.273 | 1.786 | 1.484
x1 = 0.2037 | 2.434 | 1.894 | 1.576
x1 = 0.2664 | 2.652 | 2.064 | 1.715
x1 = 0.3205 | 2.847 | 2.213 | 1.851
x1 = 0.3498 | 3.007 | 2.328 | 1.927
x1 = 0.3669 | 3.042 | 2.349 | 1.973
x1 = 0.4076 | 3.264 | 2.495 | 2.085
x1 = 0.4623 | 3.514 | 2.678 | 2.228
x1 = 0.5601 | 4 | 3.021 | 2.51
x1 = 0.6022 | 4.21 | 3.158 | 2.624
x1 = 0.6441 | 4.433 | 3.312 | 2.741
x1 = 0.7071 | 4.778 | 3.545 | 2.921
x1 = 0.7635 | 5.059 | 3.746 | 3.074
x1 = 0.8228 | 5.311 | 3.929 | 3.238
x1 = 0.8494 | 5.452 | 4.008 | 3.312
x1 = 0.9137 | 5.74 | 4.23 | 3.489
x1 = 0.9358 | 5.875 | 4.299 | 3.55
x1 = 0.961 | 6.08 | 4.384 | 3.616

CC(C)(C)O + CC(C)=O
viscosity [mPa·s]
Details | x1 = 0.0784 | x1 = 0.1618 | x1 = 0.2497 | x1 = 0.3433 | x1 = 0.4398 | x1 = 0.5382 | x1 = 0.6472 | x1 = 0.7532 | x1 = 0.8729
298.15 K | 0.3321 | 0.3734 | 0.4146 | 0.4676 | 0.5414 | 0.6566 | 0.8929 | 1.304 | 2.131
303.15 K | 0.324 | 0.3649 | 0.4058 | 0.4555 | 0.514 | 0.6108 | 0.8102 | 1.186 | 1.881
308.15 K | 0.3158 | 0.3535 | 0.3941 | 0.4405 | 0.4928 | 0.583 | 0.7695 | 1.073 | 1.632

CC(C)(C)O + C1COCCO1
298.15 K
Details | viscosity [mPa·s]
x2 = 0.0878 | 2.941
x2 = 0.1776 | 2.179
x2 = 0.2717 | 1.773
x2 = 0.3647 | 1.496
x2 = 0.4695 | 1.304
x2 = 0.571 | 1.197
x2 = 0.6659 | 1.134
x2 = 0.7778 | 1.114
x2 = 0.791 | 1.111
x2 = 0.8424 | 1.11
x2 = 0.8786 | 1.118
